Assays:
Aβ(1-40) = target: T1, Aβ(1-40) (Homo sapiens, UniProt P05067); assay: AFM topography of Aβ(1-40) after coincubation for 48 h; type: biochemical; conditions: coincubated for 48 h
T1 construct: Freeze-dried powder of amyloid polypeptide Aβ(1-40) (Invitrogen Corp.); purchased Invitrogen Corp
Method: Panel A is the AFM topography after Aβ(1-40) was incubated alone for 48 h. Panel B is an AFM topography after Aβ(1-40) was coincubated with L-NIBC for 48 h. Panel C and panel D are AFM topographies after Aβ(1-40) was coincubated with gold nanoparticles with an average particle size of 6.0 nm and 3.6 nm respectively (modified with L-NIBC) for 48 h. And panel E is an AFM topography after Aβ(1-40) was coincubated with AuCs in an average particle size of 1.8 nm (modified with L-NIBC) for 48 h.

[1] = tested on: SH-SY5Y neuroblastoma cell line; assay: Aβ induced AD cell model, cell viability by CCK-8; type: cell-based; conditions: 0.01-20 ppm (L-NIBC 20 ppm); 20 μM Aβ(1-40), 24 h
Method: The cell viability was used as an index in the experiment of this embodiment. […] The cells used in the experiment were SH-SY5Y neuroblastoma cell line. […] Specific method:
1) SH-sy5y cells (cells had passed to the sixth generation) in logarithmic growth phase were diluted with complete medium (MEM+10% FBS+1% penicillin-streptomycin) to get a cell suspension in a density of 5×10^4/mL. The suspension was inoculated 200 μL per well into a 96-well plate, and cultivated in an incubator with 5% CO2 at 37° C. A sample was added when the cells attached to the wells.
2) 100 μL ligand-modified AuCs samples or ligand-modified gold nanoparticles samples, at different particle sizes and at concentrations of 0.04 ppm, 0.4 ppm, 4 ppm, 20 ppm, 40 ppm and 80 ppm respectively, which were dissolved by maintenance medium (MEM+2% FBS+1% penicillin-streptomycin) were added into the incubated suspension obtained from Step 1). After incubating in the incubator for 2 h, 100 μL 80 μM Aβ(1-40) was added, and then the mixture was incubated in the incubator for 24 h. […] The culture medium was removed, maintenance medium (MEM) containing 10% CCK-8 at 100 μL/well was added and was incubated for 4 h, the absorbance of each well at 450 nm was measured to reflect the prevention and treatment effects of ligand-modified AuCs on Aβ(1-40) lesion.

α-syn = target: T2, α-syn (Homo sapiens, UniProt P37840); assay: In vitro α-syn aggregation kinetics (ThT fluorescent labeling); type: biochemical; conditions: L-NIBC only, 1.0 and 10.0 ppm; 35 μM α-syn, 37° C.
T2 construct: purchased Bachem Corp
Excerpt: Thioflavin T (abbreviation: ThT) is a dye for dyeing amyloid fibers specifically. […] When it encounters amyloid polypeptide or protein with a fiber structure, it will immediately couple with the amyloid polypeptides or proteins and its fluorescence intensity will increase exponentially. For this reason, ThT is widely used as markers to monitor amyloidosis of peptides or proteins. This embodiment utilizes ThT fluorescent labeling method to monitor the kinetics process of fibrosis aggregation of α-syn with the existence of AuCs. The specific experiment method was as follows:
Pretreatment of α-syn monomers: Freeze-dried powder (Bachem Corp.) of α-syn was dissolved in HFIP to obtain a 1 g/L α-syn solution. The solution was incubated at room temperature for 2-4 h after sealing, then blowed to dry HFIP by high-purity nitrogen in a fume hood. […]
Sample preparation and detection: Ligand-modified AuCs in different concentrations listed in Table 1 were added to 35 μM α-syn PBS solutions respectively, and incubated continuously in a 96-well plate at 37° C., by ThT fluorescent labeling method, and were monitored the fluorescence intensity by microplate reader once every 10 minutes. The kinetic process of α-syn aggregation was characterized through the change of fluorescence intensity of ThT. […]

T1 sequence (P05067 672-711 limits assumed): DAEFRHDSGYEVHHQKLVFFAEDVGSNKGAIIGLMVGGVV

## CC(C)C(=O)N[C@@H](CS)C(=O)O [L-NIBC, N-isobutyryl-L-cysteine]
Aβ(1-40)
  Aβ(1-40) fibers in AFM topography: no obvious effect on the formation of Aβ(1-40) fibers
[1]
  effect on cell viability in Aβ induced AD cell model: did not improve cell viability
α-syn
  effect on kinetics of α-syn aggregation: did not have an obvious effect

Source: patent publication US11058717B2, “Application of substances containing AuCs in preparing medicine for preventing and treating Alzheimer's disease” (Shenzhen Profound-View Pharma Tech Co., Ltd, priority 2017, dated 2021)
